Reference: patent US10077433B2, “Permuted and nonpermuted luciferase biosensors” (PROMEGA CORPORATION, priority 2006, dated 2018)

Key:
[1] = tested on: intracellular cAMP, HEK-293 cells; test: Forskolin titration in HEK-293 cells transfected with CPM-hRL/RIIβB biosensor (201325.78.E5); type: cell-based
Procedure: 100 μl HEK-293 cells were plated in a 96 well plate and grown to 70-90% confluency in DMEM/F12 with HEPES buffer (Invitrogen) with 10% FBS at 37° C. with 5% CO2.
Cells were transfected with TransIt®-LT1 Reagent (MIRUS) using 0.3 μl TransIt®-LT1 reagent and 0.15 μg DNA (CPM-hRL/RIIβB cAMP biosensor with X/Y peptide linker lengths of (X=4, Y=20) (201325.78.E5)) per well of a 96-well plate. Cells were allowed to grow overnight and were assayed the next day.
Approximately 1 day after transfection, cells were removed from incubator and equilibrated to room temperature. A 10 μl aliquot of 600 μM EnduRen Live Cell Substrate (Promega) was added to a total of 100 μl of cell culture to give a final concentration of approximately 60 μM coelentrazine. Cells were then incubated at room temperature for at least 15 minutes. After 15 minutes at room temperature, baseline measurements of luminescence were measured using a 96-well Veritas Luminometer (Turner) at 0.5 seconds per well. Cells were then induced with 0.025 μM-250 μM forskolin (Sigma) or not induced (0.1% DMSO (Sigma)) and luminescence was measured continuously for about 30 minutes (FIG. 19). Samples were measured in sets of 5 replicates per concentration of forskolin. EC50s were calculated using GraphPad Prism for Windows, Version 4.

[2] = tested on: intracellular cAMP concentration, HEK 293 cells; test: Intracellular cAMP changes in HEK293 cells with CPM-hRL Luc/RIIβB biosensors (isopreterenol, propranolol, forskolin); type: cell-based
Procedure: Cells were cultured in 2 mL DMEM/F12 with HEPES buffer (Invitrogen) and 10% FBS at 37° C. with 5% CO2 in a 6 well plate. Three of the constructs described in Example XVII were used to detect intracellular changes of cAMP concentrations. The constructs used were: pBFB277, pBFB279 and pBFB287. HEK293 cells stably expressing CPM91-hRL/RIIβB (ORF derived from 201325.44.H6 were also used in these experiments. HEK293 cells were transfected with TransIt®-LT1 Reagent (MIRUS) using 6 μL TransIt®-LT1 reagent and 2 μg DNA (pBFB277, pBFB279 and pBFB287) per well of a 6 well plate. Cells were allowed to grow overnight and were assayed the next day. Approximately 1 day after transfection, cells were trypsinized, resuspended in fresh DMEM/F12 with HEPES buffer (Invitrogen) with 1% FBS and plated in a 96 well plate at approximately 10,000 cells per well. Alternatively, a HEK293 cell line stably expressing CP91-hRL/RIIβB was plated in a 96 well plate at approximately 10,000 cells per well. A 10 μL aliquot of 600 μM EnduRen was added to a total of 100 μL of cell culture to give a final concentration of approximately […]. Cells were then incubated at 37° C. with 5% CO2. After 5 hours, the plate was removed from the incubator and allowed to cool to room temperature for at least 20 minutes. After 20 minutes, baseline measurements of luminescence were measured using a 96 well Veritas Luminometer (Turner Biosystems; integration time of 0.5 seconds per well). Cells were then induced with 10 μM isopreterenol (CalBiochem), 50 μM forskolin (Sigma) or not induced (0.1% DMSO, Sigma) and luminescence was measured continuously for about 30 minutes. After 30 minutes, 10 μM propranolol (Sigma) was added to cells already induced with isopreterenol and 0.1% DMSO was added to all other samples. Luminescence was then measured continuously for the next 30 minutes. A final addition of 50 μM forskolin was added to the isopreterenol/propranolol sample and 0.1% DMSO was added to all other samples. Luminescence was then measured continuously for the next half hour. Samples were measured in sets of 4-6 replicates. 10× stocks of isopreterenol, propranolol, forskolin and DMSO were made in DMEM/F12 with HEPES buffer (Invitrogen) and 1% FBS.

[3] = tested on: intracellular cAMP, HEK293 cells; test: HEK293 cells stably expressing CP234-Luc/RIIB, forskolin stimulation and Z′ measurement; type: cell-based
Procedure: The ORF from pBFB135, under the class of biosensors called “CPM-FF Luc/RIIβB,” was used to generate the transient and stable cells lines described below. These cell lines are called “CP234-Luc/RIIB,” “cAMP LucSensor,” “LucSensor,” and “FF cAMP Sensor.”
HEK293 cells stably expressing CP234-Luc/RIIB (ORF derived from pBFB135) were resuspended in complete media and mixed with 5 mM luciferin-EF. Cells were plated at 1×10^5 cells per well in a 96 well plate and equilibrated to room temperature for 1.5 hours. After stimulation with forskolin, luminescence was measured at 15 minutes using a GloMax™ Luminometer.
For a Z′ measurement, 2×10^4 cells were aliquoted per well to a 384-well plate and equilibrated using a similar protocol. Half the plate was induced with […], whereas the other half remained uninduced. Luminescence was captured 15 minutes after induction using a TECAN GENios Pro™ luminometer. The fold of induction was 6.1 and Z′ was 0.83. Since assays with Z′ greater than 0.5 are considered good quality for high-throughput screening (HTS), the cAMP biosensor-based assay is amenable for HTS.

[4] = tested on: intracellular cAMP concentration, HEK 293 cells; test: Intracellular cAMP changes in HEK 293 cells transiently transfected with CPM-FF Luc/RIIβB (pBFB141); type: cell-based; details: HEK 293 cells, pBFB141; 10 μM isopreterenol or 50 mM forskolin (so in the source), treatment alone, room temperature
Procedure: Cells were cultured in 60 ml in DMEM/F12 with HEPES buffer (Invitrogen) with 10% FBS at 37° C. with 5% CO2.
The ORF encoding the CPM-FF Luc/RIIβB based cAMP biosensor with X/Y linker lengths of (X=10, Y=0) was transferred to Flexi vector pF4K (Flexi vector system; Promega Corp.). The resultant plasmid construct (pBFB141) utilizes an upstream CMV promoter for expression of the associated cAMP biosensor in mammalian cells.
Cells were transfected with TransIt®-LT1 Reagent (MIRUS) using 0.3 μl TransIt®-LT1 reagent and 0.15 μg DNA per well of a 96 well plate. Cells were allowed to grow overnight and were assayed the next day.
Approximately 1 day after transfection, cells were removed from the incubator and equilibrated to room temperature. A 5 μl aliquot of 100 mM Luciferin EF was added to a total of 90 μl of cell culture plus transfection reagent to give a final concentration of approximately 5 mM luciferin. Cells were then incubated at room temperature for at least 90 minutes. After 90 minutes at room temperature, baseline measurements of luminescence were measured using a 96 well Veritas Luminometer (Turner Biosystems; integration time of 0.5 seconds per well). Cells were then induced with 10 μM isopreterenol (CalBiochem), 50 mM forskolin (Sigma) or not induced (0.1% DMSO, Sigma) and luminescence was measured continuously for about 30 minutes. After 30 minutes, […] (Sigma) was added to cells with isopreterenol and 0.1% DMSO was added to all other samples. Luminescence was then measured continuously for the next 30 minutes. A final addition of 50 μM forskolin was added to the isopreterenol/propranolol sample and 0.1% DMSO was added to all other samples. Luminescence was then measured continuously for the next half hour. Samples were measured in sets of 12 replicates. 10× stocks of isopreterenol, propranolol, forskolin and DMSO were made in 1×PBS (Invitrogen).

[5] = tested on: cyclic AMP dependent protein kinase catalytic subunit; details: cited from earlier work
[6] = target: T1, Akt1/PKB alpha recombinant enzyme (Homo sapiens, UniProt P31749); test: In vitro serine/threonine kinase sensor assay with Akt1/PKB; type: biochemical; details: 10 ng Akt1/PKB alpha, 30° C., 20 minutes
T1 construct: purchased Upstate Biotechnology
T1 sequence (P31749 whole entry): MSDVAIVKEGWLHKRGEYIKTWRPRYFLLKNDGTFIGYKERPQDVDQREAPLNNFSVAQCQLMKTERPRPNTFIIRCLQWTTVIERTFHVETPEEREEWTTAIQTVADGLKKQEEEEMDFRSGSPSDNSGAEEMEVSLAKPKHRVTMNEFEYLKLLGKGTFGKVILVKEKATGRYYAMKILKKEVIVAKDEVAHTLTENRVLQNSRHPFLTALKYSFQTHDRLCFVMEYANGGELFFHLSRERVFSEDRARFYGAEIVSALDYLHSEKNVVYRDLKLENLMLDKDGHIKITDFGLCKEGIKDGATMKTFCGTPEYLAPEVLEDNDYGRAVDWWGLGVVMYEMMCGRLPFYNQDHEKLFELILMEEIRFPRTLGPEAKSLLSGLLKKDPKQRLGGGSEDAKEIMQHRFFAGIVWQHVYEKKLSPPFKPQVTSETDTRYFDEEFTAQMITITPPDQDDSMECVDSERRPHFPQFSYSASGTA
Procedure: Constructs pBFB335, 336, 338, 339, 340, 417, 418, 419, 422, 22 and 8 were tested in vitro using TNT® T7 Coupled Reticulocyte Lysate System (Promega Corp.). […] Luminescence was measured using a Turner 20/20N luminometer (Turner Biosystems; 1 second integration time). All samples were measured in triplicate. […]
The protocol for other Serine/Threonine kinase sensors is identical to the one above except that for the CPM hRL Luc samples, 5 μL of sample are added to a 96 well plate+5 μL 2× Renilla lysis buffer without detergents (150 mM HEPES, 100 mM Thiourea) and 100 μL Renilla Assay Reagent (Promega Corp.) is added by injectors using a Veritas Microplate Luminometer and luminescence is measured (Turner Biosystems; Bright-Glo program; 3 second integration time). FF Luc samples are measured by adding 100 μL of Luciferase Assay Reagent (LAR; Promega Corp.), to 5 μL of sample in a 96 well plate, by injectors using a Veritas Microplate Luminometer and luminescence measured (Turner Biosystems; Bright-Glo program; 3 second integration time).

[7] = CPM-FF Luc calcium biosensors, 10 mM CaCl2 or 10 mM EDTA plus 2.5 mM EGTA; type: biochemical; details: 10 mM CaCl2 vs 10 mM EDTA plus 2.5 mM EGTA
Procedure: Calcium biosensors were prepared by fusing sequences encoding a circularly permuted firefly luciferase having engineered N- and C-termini at residues 234 and 233, respectively, to sequences encoding protein domains that bind calcium. One type of calcium biosensor utilized a mutant of fast chicken skeletal muscle troponin C (TnC) (amino acids 15-163; N109D, D111N, N145D, D147N; Genbank NM_205450) [Met-(Luc2.0 234-544)-(Linker X)-(TnC)-(Linker Y)-(Luc2.0 4-233)-Val], and the second type of calcium biosensor utilized human calmodulin (CaM) (amino acids 5-148; Genbank BC005137) [Met-Luc+ (234-544)-(Linker X)-human Calmodulin (5-148)-(Linker Y)-Luc+ (4-233)].
CPM-FF Luc/TnC and CPM-FF Luc/CaM constructs with varying X/Y peptide linker lengths were expressed in vitro using the T7 Coupled Reticulocyte Lysate System (pBFB225, pBFB226, pBFB227, pBFB7; FIG. 24). Reactions were then supplemented with 10 mM CaCl2 or 10 mM EDTA plus 2.5 mM EGTA.

With `C=C[C@@]1(C)CC(=O)[C@]2(O)[C@@]3(C)[C@@H](O)CCC(C)(C)[C@@H]3[C@H](O)[C@H](OC(C)=O)[C@@]2(C)O1` [forskolin] the “light output above that of untreated cells at maximal levels” value ([1]; CPM-hRL/RIIβB X=4, Y=20 (201325.78.E5)) was 3.6 fold, the EC50 ([1]; Homo sapiens, HEK293, CPM-hRL/RIIβB X=4, Y=20 (201325.78.E5), read-out: EC50 of the forskolin response) was 59 nM and the “increase in light output” value ([2]; HEK293 cells stably expressing CPM91-hRL/RIIβB, isopreterenol and forskolin treatment) was “about 5 fold”. The “increase in light output from transfected cells” value ([2]; HEK 293 transiently transfected with CPM-hRL Luc/RIIβB (X=4, Y=20) constructs, 10 μM isopreterenol or 50 μM forskolin alone) was “approximately 2 fold”, the fold of induction ([3]; 384-well plate, induced with 20 forskolin (so in the source), 15 minutes) was 6.1 fold and the EC50 ([3]; Homo sapiens, 0.25 h, HEK293 stably expressing CP234-Luc/RIIB, 96 well, luminescence at 15 minutes) was 360 nM. For the same compound, the “increase in light output from transfected cells” value [4] was “approximately 2 fold”.

In the case of “RRFS: Photinus pyralis luciferase V217R mutant with site RRFS (SEQ ID NO:117), Sala-Newby et al.”, the “decrease in activity on phosphorylation by cyclic AMP dependent protein kinase” value [5] is given as “up to 80%”.

In the case of “pBFB22: wild-type firefly luciferase control”, the “decrease in luminescence plus Akt1/PKB as compared to no Akt1/PKB” value [6] is reported as “did not change” and the “fold reduction in luminescence activity in the presence of calcium” value [7] is reported as “No response”.
